{"source": "patent EP0187956A2", "about": "“Pharmaceutical composition for the treatment of defects of the gastrointestinal mucous membrane” (BOEHRINGER INGELHEIM KG, priority 1984, dated 1986)", "key": {"[1]": {"tested_on": "Durch Ethanol verursachte Magengeschwüre", "test": "Ethanol-induced gastric ulcers in fasted female rats", "type": "in vivo, Ratten", "conditions": "for ED50: Rattus norvegicus, po, 30 min before 0,7 ml absolute ethanol, dose protecting 50 % of the animals", "experimental": "(§1) Die mucoprotektive Wirkung auf den Gastrointestinaltrakt verschiedener Verbindungen wurde im Vergleich zu dem bekannten Antiulcusmittel Carbenoxolone an weiblichen Ratten getestet, die für 24 Stunden vor Beginn des Tests fasteten. Diese Tiere wurden den folgenden Tests unterworfen:\n(§2) Gruppen von 10 Ratten erhielten abgestufte Dosen der zu untersuchenden Verbindungen oral mittels Schlundsonde; die Verbindungen waren in 0,2 % Methocel suspendiert. Nach 30 Minuten erhielten die Tiere 0,7 ml absolutes Ethanol. 30 Minuten später wurden die Tiere getötet, der Magen entfernt, entlang der großen Curvatur geöffnet und von einem neutralen Beobachter untersucht. Einem Magengeschwür entsprechende Schädigungen wurden auch nach ihrer Schwere beurteilt, aber ihre Häufigkeit (in %) diente als Basis für die Berechnung des prozentualen Schutzes. Die ED50 ist diejenige Dosis einer Verbindung, die 50 % der Tiere schützt; sie wird ausgedrückt durch die Relation Schutz:Dosis."}, "[2]": {"tested_on": "Durch Natronlauge verursachte Magengeschwüre", "test": "Sodium hydroxide (0,2 N)-induced gastric ulcers in fasted female rats", "type": "in vivo, Ratten", "conditions": "for ED50: Rattus norvegicus, po, 1 h, p.o., 0,2 N sodium hydroxide as ulcerogen, animals killed 60 min after it", "experimental": "as §1, §2\nDer Test verlief in gleicher Weise wie der unter 1. beschriebene. Anstelle von Ethanol wurde 0,2 N Natronlauge als Ulcus verursachendes Agens gewählt und die Tiere 60 Minuten nach dessen Gabe getötet. Die ED50 wurde, wie oben angegeben, bestimmt."}, "[3]": {"tested_on": "Durch Ethanol verursachte Magengeschwüre bei Ratten, die mit Indomethacin und Acetylsalicylsäure vorbehandelt worden waren", "test": "Ethanol-induced gastric ulcers in rats pretreated with indomethacin or acetylsalicylic acid (suppression of prostaglandin synthesis)", "type": "in vivo", "conditions": "30 mg/kg p.o.", "experimental": "as §1, §2\nEs ist bekannt, daß Prostaglandine einen cytoprotektiven Effekt haben. Weiter ist bekannt, daß Prostaglandine eine antiulcerogene Wirkung haben. Durch eine Hemmung der Prostaglandin-Biosynthese, z.B. durch Acetylsalicylsäure oder Indomethacin, wird die antiulceregene Wirkung unterdrückt.\nGruppen von je 10 Ratten wurden entweder mit Indomethacin (3 mg/kg s.c.) oder Acetylsalicylsäure (10 mg/kg) vorbehandelt und nach 30 bis 60 Minuten die Testsubstanz verabreicht. Dann wurde ein durch Ethanol verursachtes Magengeschwür gesetzt und, wie unter 1. beschrieben, weitergearbeitet."}}}
{"smiles": "CC(CS)C(=O)N1CCc2sccc2C1C(=O)O", "note": "[C, 1-(3-Mercapto-2-(R,S)-methylpropanoyl)-4,5,6,7-tetrahydro-thieno-[3,2-c]pyridin-4-(R,S)-carbonsäure]", "values": [{"measurement": "ED50", "setting": "[1]", "value": 6, "unit": "mg/kg"}]}
{"smiles": "CC(CS)C(=O)N1CCC[C@@H]1C(=O)O", "note": "(stereo partly drawn) [Captopril, D-2-Methyl-3-mercaptopropanoyl-L-prolin, reference compound]", "values": [{"measurement": "% Schutz (% Tier ohne Magengeschwüre)", "setting": "[1]; 30 mg/kg p.o.", "value": 5, "unit": "%"}, {"measurement": "% Schutz (% Tier ohne Magengeschwüre)", "setting": "[1]; 55 mg/kg p.o.", "value": 30, "unit": "%"}, {"measurement": "% Schutz (% Tier ohne Magengeschwüre)", "setting": "[1]; 100 mg/kg p.o.", "value": 70, "unit": "%"}, {"measurement": "ED50", "setting": "[1]", "value": 74.4, "unit": "mg/kg"}]}
{"smiles": "CC1(C)[C@@H](OC(=O)CCC(=O)O)CC[C@]2(C)[C@H]3C(=O)C=C4[C@@H]5C[C@@](C)(C(=O)O)CC[C@]5(C)CC[C@@]4(C)[C@]3(C)CC[C@@H]12", "note": "[Carbenoxolone, reference compound]", "values": [{"measurement": "% Schutz (% Tier ohne Magengeschwüre)", "setting": "[1]; 30 mg/kg p.o.", "value": 10, "unit": "%"}, {"measurement": "% Schutz (% Tier ohne Magengeschwüre)", "setting": "[1]; 100 mg/kg p.o.", "value": 60, "unit": "%"}, {"measurement": "% Schutz (% Tier ohne Magengeschwüre)", "setting": "[1]; 300 mg/kg p.o.", "value": 90, "unit": "%"}, {"measurement": "ED50", "setting": "[1]", "value": 89, "unit": "mg/kg"}, {"measurement": "%Schutz-wirkung", "setting": "[2]; 100 mg/kg p.o.", "value": 33, "unit": "%"}, {"measurement": "%Schutz-wirkung", "setting": "[2]; 170 mg/kg p.o.", "value": 70, "unit": "%"}, {"measurement": "%Schutz-wirkung", "setting": "[2]; 300 mg/kg p.o.", "value": 80, "unit": "%"}, {"measurement": "ED50", "setting": "[2]", "value": 132, "unit": "mg/kg"}]}
{"smiles": "C[C@@H](CSC(C[N+](=O)[O-])c1ccccc1)C(=O)N1CCC[C@H]1C(=O)O", "note": "(stereo partly drawn) [D, 1-[3-(1-Phenyl-2-nitro-äthylthio)-2-R-methylpropanoyl]-L-prolin]", "values": [{"measurement": "ED50", "setting": "[1]", "value": 0.6, "unit": "mg/kg"}]}
{"smiles": "CCOC(=O)[C@H](CCc1ccccc1)N[C@@H](C)C(=O)N1CCc2ccsc2[C@H]1C(=O)O", "note": "[E, N-[N-1-(S-Ethoxycarbonyl-3-phenylpropyl)-2-S-alanyl]-4,5,6,7-tetrahydro-thieno[2,3-c]pyridin-7-R-carbonsäure]", "values": [{"measurement": "ED50", "setting": "[1]", "value": 12, "unit": "mg/kg"}]}
{"smiles": "CC(=O)SC[C@@H](C)C(=O)N1CCc2sccc2C1C(=O)O", "note": "(stereo partly shown) [F]", "values": [{"measurement": "ED50", "setting": "[1]", "value": 3, "unit": "mg/kg"}]}
{"smiles": "C[C@H](CS)C(=O)N1CCC[C@H]1C(=O)OCOC(=O)C(C)(C)C", "note": "[G, 1-(3-Mercapto-Z-D-methylpropanoyl)-L-prolin-pivaloyloxymethylester]", "values": [{"measurement": "% Schutz (% Tier ohne Magengeschwüre)", "setting": "[1]; 3 mg/kg p.o.", "value": 30, "unit": "%"}, {"measurement": "% Schutz (% Tier ohne Magengeschwüre)", "setting": "[1]; 10 mg/kg p.o.", "value": 50, "unit": "%"}, {"measurement": "% Schutz (% Tier ohne Magengeschwüre)", "setting": "[1]; 30 mg/kg p.o.", "value": 40, "unit": "%"}, {"measurement": "ED50", "setting": "[1]", "value": 4, "unit": "mg/kg"}, {"measurement": "%Schutz-wirkung", "setting": "[2]; 3 mg/kg p.o.", "value": 10, "unit": "%"}, {"measurement": "%Schutz-wirkung", "setting": "[2]; 10 mg/kg p.o.", "value": 39, "unit": "%"}, {"measurement": "%Schutz-wirkung", "setting": "[2]; 17 mg/kg p.o.", "value": 70, "unit": "%"}, {"measurement": "%Schutz-wirkung", "setting": "[2]; 30 mg/kg p.o.", "value": 80, "unit": "%"}, {"measurement": "ED50", "setting": "[2]", "value": 11.7, "unit": "mg/kg"}, {"measurement": "% Schutzwirkung", "setting": "[3]; pretreatment: Acetylsalicylsäure 10 mg/kg p.o., 60 min before ethanol", "value": 10, "unit": "%"}, {"measurement": "% Schutzwirkung", "setting": "[3]; pretreatment: Indomethacin 3 mg/kg s.c., 30 min before ethanol", "value": 40, "unit": "%"}, {"measurement": "% Schutzwirkung", "setting": "[3]; pretreatment: saline (control)", "value": 100, "unit": "%"}]}
